The values that follow come from US10189957B2, “Formulation process method to produce spray dried products” (ISP INVESTMENTS LLC, priority 2007, dated 2019).

The structures appear in SMILES notation.

Data set [1] is described as follows: Dissolution test, USP apparatus II (paddles), powders in size 1 hard gelatin capsules. The class given is physicochemical. The conditions noted are these: amount equivalent to 50 mg efavirenz, capsules with additional 15% croscarmellose sodium, 37° C. The protocol: A. The dissolution properties of both amorphous compositions were tested and compared to crystalline EFV. An amount equivalent to 50 mg efavirenz was analyzed. Powders were hand-filled into size 1 hard gelatin capsules (Shinogi Qualicaps) with an additional 15% croscarmellose sodium (Ac-Di-Sol®, FMC BioPolymers). USP apparatus II (paddles) (VK 7010®, Varian Inc.) was used, with a bath temperature of 37° C. and a paddle speed of 50 rpm for 60 minutes.
B. Each of the amorphous powders from Examples 1 and 2 achieved higher rate of release and maximum aqueous concentration than the crystalline form (FIG. 6, Table 2). The initial rate of release from the amorphous powders was more than 10-times higher than the crystalline form.

Data set [2] in a line: Solubility in ethyl acetate at standard laboratory conditions. The class given is physicochemical. The conditions noted are these: about 25° C. and 1 atmosphere. The method, then:
A dispersion was prepared containing 1 ezetimibe: 1 PVP K-12 at 1% total solids in ethyl acetate at standard laboratory conditions (about 25° C. and 1 atmosphere).

For the compound `O=C1Nc2ccc(Cl)cc2[C@@](C#CC2CC2)(C(F)(F)F)O1` [crystalline EFV, efavirenz], the extent of release in data set [1] (paddle speed 50 rpm for 60 minutes) was 10%. Moreover, the “rate of release, 0-15 min” value in data set [1] (paddle speed 50 rpm, 0-15 min) was 0.13 mg/min. Regarding `O=C1[C@H](CC[C@H](O)c2ccc(F)cc2)[C@@H](c2ccc(O)cc2)N1c1ccc(F)cc1` [ezetimibe], in data set [2], the “solubility in ethyl acetate” value was “soluble”.
